Tests used:
[1] = target: Serine/threonine-protein kinase BRSK1 (Homo sapiens) (UniProt Q8TDC3); test: Inhibition of BrSK1(h) at 10.0 µM in the Eurofins Kinase panel; details: Compound concentration 10.0 uM
[2] = target: Androgen receptor (Homo sapiens) (UniProt P10275); details: Compound concentration 10.0 uM
[3] = target: Dual specificity mitogen-activated protein kinase kinase 2 (Homo sapiens) (UniProt P36507); test: Inhibition of MEK2(h) at 10.0 µM in the Eurofins Kinase panel; details: Compound concentration 10.0 uM
Chain of Dual specificity mitogen-activated protein kinase kinase 2 (Homo sapiens) (P36507 whole entry): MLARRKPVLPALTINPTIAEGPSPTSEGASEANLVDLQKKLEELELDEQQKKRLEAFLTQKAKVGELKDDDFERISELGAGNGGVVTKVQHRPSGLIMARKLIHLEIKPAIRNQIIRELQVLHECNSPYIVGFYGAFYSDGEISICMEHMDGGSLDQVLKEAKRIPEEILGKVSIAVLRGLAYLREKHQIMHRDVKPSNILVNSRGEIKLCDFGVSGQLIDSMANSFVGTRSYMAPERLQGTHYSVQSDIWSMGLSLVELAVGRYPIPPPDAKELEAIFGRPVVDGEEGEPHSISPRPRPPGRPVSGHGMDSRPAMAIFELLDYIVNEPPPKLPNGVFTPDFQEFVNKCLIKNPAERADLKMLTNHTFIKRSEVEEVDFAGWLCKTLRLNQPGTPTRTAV

[4] = target: Ephrin type-A receptor 1 (Homo sapiens) (UniProt P21709); test: Inhibition of EphA1(h) at 10.0 µM in the Eurofins Kinase panel; details: Compound concentration 10.0 uM
Chain of Ephrin type-A receptor 1 (Homo sapiens) (P21709 whole entry): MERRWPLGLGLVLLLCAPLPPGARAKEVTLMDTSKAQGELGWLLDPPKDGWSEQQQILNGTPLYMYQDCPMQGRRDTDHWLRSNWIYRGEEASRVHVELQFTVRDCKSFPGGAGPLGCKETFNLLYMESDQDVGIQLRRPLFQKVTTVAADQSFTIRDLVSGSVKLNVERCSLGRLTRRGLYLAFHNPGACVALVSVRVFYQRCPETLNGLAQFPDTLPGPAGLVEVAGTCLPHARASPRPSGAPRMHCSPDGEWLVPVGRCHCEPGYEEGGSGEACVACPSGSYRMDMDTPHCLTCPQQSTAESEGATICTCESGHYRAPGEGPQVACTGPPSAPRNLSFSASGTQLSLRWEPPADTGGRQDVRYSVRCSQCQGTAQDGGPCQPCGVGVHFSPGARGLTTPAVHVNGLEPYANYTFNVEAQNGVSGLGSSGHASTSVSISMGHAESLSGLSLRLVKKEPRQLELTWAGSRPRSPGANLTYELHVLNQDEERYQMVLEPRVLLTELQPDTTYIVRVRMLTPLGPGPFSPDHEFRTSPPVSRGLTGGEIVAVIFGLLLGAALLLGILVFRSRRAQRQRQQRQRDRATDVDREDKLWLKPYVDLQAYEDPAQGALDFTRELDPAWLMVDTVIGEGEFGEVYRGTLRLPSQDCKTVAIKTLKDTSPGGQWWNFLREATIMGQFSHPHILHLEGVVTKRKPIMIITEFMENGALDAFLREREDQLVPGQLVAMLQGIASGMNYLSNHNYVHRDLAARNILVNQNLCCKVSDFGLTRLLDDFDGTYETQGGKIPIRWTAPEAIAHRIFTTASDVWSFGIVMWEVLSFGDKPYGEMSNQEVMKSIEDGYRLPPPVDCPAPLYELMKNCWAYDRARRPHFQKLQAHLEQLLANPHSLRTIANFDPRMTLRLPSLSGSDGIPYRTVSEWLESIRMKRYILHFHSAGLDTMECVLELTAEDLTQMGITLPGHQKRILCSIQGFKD

[5] = target: T1, Oxytocin receptor (Homo sapiens) (UniProt P30559); test: Inhibition of Oxytocin at 1 µM in the Eurofins-Panlabs radioligand binding assay (Eurofins_assay_260900); set-up: ligand concentration 0.8 nM, non-specific ligand with concentration 1 µM Oxytocin, incubation time 2 h, incubation temperature 25°C
T1 sequence (whole entry): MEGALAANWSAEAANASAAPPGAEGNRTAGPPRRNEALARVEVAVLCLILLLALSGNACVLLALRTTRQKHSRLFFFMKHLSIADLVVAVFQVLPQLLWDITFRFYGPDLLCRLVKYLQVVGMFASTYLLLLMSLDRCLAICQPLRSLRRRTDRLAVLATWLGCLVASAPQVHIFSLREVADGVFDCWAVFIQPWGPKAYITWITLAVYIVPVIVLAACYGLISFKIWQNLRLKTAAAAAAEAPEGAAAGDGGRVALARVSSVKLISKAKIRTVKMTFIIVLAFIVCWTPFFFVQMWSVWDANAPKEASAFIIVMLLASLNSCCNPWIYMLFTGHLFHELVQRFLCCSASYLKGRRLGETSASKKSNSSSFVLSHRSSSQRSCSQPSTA

[6] = target: 5'-AMP-activated protein kinase catalytic subunit alpha-1 (Homo sapiens) (UniProt Q13131); test: Inhibition of AMPKalpha1(h) at 10.0 µM in the Eurofins Kinase panel; details: Compound concentration 10.0 uM
Chain of 5'-AMP-activated protein kinase catalytic subunit alpha-1 (Homo sapiens) (Q13131 whole entry, looked up): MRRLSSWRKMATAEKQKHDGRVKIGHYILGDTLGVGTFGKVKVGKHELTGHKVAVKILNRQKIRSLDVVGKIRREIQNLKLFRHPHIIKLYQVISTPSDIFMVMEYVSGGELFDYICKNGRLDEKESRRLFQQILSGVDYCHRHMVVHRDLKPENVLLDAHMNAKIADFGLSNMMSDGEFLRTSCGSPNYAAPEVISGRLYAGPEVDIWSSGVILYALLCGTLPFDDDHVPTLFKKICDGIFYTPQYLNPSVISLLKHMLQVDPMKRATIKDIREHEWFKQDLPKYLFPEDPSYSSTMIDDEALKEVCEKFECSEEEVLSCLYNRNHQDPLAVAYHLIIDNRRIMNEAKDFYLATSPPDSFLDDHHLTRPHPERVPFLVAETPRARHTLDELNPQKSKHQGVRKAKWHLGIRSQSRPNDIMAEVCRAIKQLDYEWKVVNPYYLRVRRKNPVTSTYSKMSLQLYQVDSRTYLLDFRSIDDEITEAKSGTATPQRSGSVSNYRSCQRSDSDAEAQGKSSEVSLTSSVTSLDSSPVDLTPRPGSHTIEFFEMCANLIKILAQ

[7] = target: Cyclin-dependent kinase 14/Cyclin-Y (Homo sapiens) (UniProt O94921+Q8ND76); test: Inhibition of CDK14/cyclinY(h) at 10.0 µM in the Eurofins Kinase panel; type: protein-complex assay; details: Compound concentration 10.0 uM
[8] = target: MAP kinase-activated protein kinase 2 (Homo sapiens) (UniProt P49137); test: Inhibition of MAPK2(h) at 10.0 µM in the Eurofins Kinase panel; details: Compound concentration 10.0 uM
[9] = target: cAMP-dependent protein kinase catalytic subunit PRKX (Homo sapiens) (UniProt P51817); test: Inhibition of PrKX(h) at 10.0 µM in the Eurofins Kinase panel; details: Compound concentration 10.0 uM
Chain of cAMP-dependent protein kinase catalytic subunit PRKX (Homo sapiens) (P51817 whole entry): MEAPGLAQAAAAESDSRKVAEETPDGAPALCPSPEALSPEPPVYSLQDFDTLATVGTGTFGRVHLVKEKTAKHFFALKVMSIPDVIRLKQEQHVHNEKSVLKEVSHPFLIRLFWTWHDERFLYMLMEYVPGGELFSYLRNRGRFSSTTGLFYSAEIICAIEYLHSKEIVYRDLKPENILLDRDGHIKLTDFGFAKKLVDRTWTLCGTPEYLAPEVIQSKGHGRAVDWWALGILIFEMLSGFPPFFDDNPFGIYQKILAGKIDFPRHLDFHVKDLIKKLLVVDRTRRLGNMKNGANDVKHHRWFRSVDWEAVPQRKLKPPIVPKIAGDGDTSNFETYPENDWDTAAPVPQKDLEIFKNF

[10] = target: Cytoplasmic tyrosine-protein kinase BMX (Homo sapiens) (UniProt P51813); test: Inhibition of Bmx(h) at 10.0 µM in the Eurofins Kinase panel; details: Compound concentration 10.0 uM
[11] = target: Type-2 angiotensin II receptor (Homo sapiens) (UniProt P50052); details: Compound concentration 10.0 uM
Chain of Type-2 angiotensin II receptor (Homo sapiens) (P50052 whole entry): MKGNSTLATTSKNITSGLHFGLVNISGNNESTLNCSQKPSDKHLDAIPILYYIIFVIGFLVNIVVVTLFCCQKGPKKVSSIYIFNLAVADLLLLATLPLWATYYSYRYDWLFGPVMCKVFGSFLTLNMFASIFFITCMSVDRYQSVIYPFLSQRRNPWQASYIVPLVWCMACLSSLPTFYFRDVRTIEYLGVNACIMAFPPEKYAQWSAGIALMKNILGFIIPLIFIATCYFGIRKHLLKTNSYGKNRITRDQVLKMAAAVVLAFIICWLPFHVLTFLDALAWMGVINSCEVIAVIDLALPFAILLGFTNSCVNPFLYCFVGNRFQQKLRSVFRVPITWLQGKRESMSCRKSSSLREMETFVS

[12] = target: Eukaryotic elongation factor 2 kinase (Homo sapiens) (UniProt O00418); test: Inhibition of eEF-2K(h) at 10.0 µM in the Eurofins Kinase panel; details: Compound concentration 10.0 uM
[13] = target: Sodium-dependent noradrenaline transporter (Homo sapiens, UniProt P23975); details: Compound concentration 10.0 uM
Chain of Sodium-dependent noradrenaline transporter (P23975 whole entry): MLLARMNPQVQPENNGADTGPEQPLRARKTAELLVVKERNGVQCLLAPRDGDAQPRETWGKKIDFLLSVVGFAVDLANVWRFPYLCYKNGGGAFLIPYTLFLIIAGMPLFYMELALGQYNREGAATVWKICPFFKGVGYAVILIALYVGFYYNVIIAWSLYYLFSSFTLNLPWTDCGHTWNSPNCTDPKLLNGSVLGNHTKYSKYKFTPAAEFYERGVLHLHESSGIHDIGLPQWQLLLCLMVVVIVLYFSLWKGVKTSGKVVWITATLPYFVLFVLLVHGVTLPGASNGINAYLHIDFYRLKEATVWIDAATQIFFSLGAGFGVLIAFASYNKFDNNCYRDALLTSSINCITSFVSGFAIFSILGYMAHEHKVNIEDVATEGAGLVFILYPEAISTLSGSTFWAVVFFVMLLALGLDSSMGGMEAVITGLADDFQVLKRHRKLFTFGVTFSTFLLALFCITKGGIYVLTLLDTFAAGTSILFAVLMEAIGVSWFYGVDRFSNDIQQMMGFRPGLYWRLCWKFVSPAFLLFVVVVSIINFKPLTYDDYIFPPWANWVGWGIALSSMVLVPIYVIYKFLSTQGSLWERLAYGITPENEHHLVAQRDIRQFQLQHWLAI

[14] = target: Adenosine receptor A3 (Homo sapiens) (UniProt P0DMS8); details: Compound concentration 10.0 uM
[15] = target: TGF-beta receptor type-2 (Homo sapiens) (UniProt P37173); test: Inhibition of TGFBR2(h) at 10.0 µM in the Eurofins Kinase panel; details: Compound concentration 10.0 uM
[16] = target: D(3) dopamine receptor (Homo sapiens) (UniProt P35462); details: Compound concentration 10.0 uM
Chain of D(3) dopamine receptor (Homo sapiens) (P35462 whole entry): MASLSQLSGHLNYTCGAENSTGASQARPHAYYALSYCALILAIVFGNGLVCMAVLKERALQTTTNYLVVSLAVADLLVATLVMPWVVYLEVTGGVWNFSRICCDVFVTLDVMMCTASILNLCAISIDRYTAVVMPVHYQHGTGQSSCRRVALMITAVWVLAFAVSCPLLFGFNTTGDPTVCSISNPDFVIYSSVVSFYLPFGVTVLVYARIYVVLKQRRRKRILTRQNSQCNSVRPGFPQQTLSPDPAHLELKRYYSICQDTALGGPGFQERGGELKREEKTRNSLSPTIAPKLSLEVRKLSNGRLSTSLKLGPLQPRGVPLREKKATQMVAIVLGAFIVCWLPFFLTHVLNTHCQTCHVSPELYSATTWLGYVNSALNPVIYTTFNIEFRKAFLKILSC

[17] = target: Muscarinic acetylcholine receptor M3 (Homo sapiens) (UniProt P20309); details: Compound concentration 10.0 uM
[18] = target: Interleukin-1 receptor-associated kinase 4 (Homo sapiens) (UniProt Q9NWZ3); test: Inhibition of IRAK4(h) at 10.0 µM in the Eurofins Kinase panel; details: Compound concentration 10.0 uM
[19] = target: T2, 5-hydroxytryptamine receptor 1A (Homo sapiens) (UniProt P08908); details: Compound concentration 10.0 uM
T2 sequence (whole entry): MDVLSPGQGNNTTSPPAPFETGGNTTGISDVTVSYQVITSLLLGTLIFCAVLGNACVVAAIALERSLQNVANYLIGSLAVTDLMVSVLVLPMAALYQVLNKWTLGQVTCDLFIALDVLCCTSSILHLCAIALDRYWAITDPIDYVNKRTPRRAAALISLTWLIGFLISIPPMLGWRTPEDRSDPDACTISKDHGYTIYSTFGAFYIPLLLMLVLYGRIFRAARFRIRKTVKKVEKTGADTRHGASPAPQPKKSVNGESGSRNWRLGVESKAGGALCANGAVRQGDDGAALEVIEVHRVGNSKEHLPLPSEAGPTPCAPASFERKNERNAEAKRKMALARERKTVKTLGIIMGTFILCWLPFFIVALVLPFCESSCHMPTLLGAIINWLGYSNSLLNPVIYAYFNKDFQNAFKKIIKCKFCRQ

[20] = target: T3, Alpha-1D adrenergic receptor (Homo sapiens) (UniProt P25100); details: Compound concentration 10.0 uM
T3 sequence (whole entry): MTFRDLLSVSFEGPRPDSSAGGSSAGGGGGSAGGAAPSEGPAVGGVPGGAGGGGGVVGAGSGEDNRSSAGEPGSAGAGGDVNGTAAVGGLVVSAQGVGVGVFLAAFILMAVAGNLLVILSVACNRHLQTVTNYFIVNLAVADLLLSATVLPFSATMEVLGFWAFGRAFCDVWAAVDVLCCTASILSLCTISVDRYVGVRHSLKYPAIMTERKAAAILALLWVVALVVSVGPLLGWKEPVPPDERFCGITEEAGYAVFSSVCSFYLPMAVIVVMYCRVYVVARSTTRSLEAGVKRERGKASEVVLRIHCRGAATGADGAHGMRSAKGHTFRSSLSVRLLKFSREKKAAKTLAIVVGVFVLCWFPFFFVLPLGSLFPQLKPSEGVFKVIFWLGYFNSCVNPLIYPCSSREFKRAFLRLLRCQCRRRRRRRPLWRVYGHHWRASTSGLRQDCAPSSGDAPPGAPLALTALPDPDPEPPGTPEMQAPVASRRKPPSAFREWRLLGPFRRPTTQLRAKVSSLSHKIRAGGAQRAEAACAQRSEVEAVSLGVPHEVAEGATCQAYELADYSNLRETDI

[21] = target: Wee1-like protein kinase 2 (Homo sapiens) (UniProt P0C1S8); test: Inhibition of Wee1B(h) at 10.0 µM in the Eurofins Kinase panel; details: Compound concentration 10.0 uM
[22] = target: Mitogen-activated protein kinase kinase kinase kinase 4 (Homo sapiens) (UniProt O95819); test: Inhibition of MAP4K4(h) at 10.0 µM in the Eurofins Kinase panel; details: Compound concentration 10.0 uM
[23] = target: Dual specificity protein kinase CLK2 (Homo sapiens) (UniProt P49760); test: Inhibition of CLK2(h) at 10.0 µM in the Eurofins Kinase panel; details: Compound concentration 10.0 uM
Chain of Dual specificity protein kinase CLK2 (Homo sapiens) (P49760 whole entry, looked up): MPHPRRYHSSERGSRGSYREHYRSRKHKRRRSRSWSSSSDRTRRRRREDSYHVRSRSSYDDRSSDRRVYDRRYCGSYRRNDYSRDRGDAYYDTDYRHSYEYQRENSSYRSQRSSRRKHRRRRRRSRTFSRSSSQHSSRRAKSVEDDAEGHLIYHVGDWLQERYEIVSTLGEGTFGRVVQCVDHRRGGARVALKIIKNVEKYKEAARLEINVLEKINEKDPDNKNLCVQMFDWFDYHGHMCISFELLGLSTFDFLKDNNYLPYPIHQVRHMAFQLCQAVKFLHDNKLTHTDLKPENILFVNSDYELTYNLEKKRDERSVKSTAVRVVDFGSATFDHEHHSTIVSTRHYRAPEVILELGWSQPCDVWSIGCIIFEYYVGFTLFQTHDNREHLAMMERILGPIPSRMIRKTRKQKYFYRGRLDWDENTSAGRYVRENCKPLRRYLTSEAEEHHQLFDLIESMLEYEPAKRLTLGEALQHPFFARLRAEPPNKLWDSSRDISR

Chain of Serine/threonine-protein kinase BRSK1 (Homo sapiens) (Q8TDC3 whole entry): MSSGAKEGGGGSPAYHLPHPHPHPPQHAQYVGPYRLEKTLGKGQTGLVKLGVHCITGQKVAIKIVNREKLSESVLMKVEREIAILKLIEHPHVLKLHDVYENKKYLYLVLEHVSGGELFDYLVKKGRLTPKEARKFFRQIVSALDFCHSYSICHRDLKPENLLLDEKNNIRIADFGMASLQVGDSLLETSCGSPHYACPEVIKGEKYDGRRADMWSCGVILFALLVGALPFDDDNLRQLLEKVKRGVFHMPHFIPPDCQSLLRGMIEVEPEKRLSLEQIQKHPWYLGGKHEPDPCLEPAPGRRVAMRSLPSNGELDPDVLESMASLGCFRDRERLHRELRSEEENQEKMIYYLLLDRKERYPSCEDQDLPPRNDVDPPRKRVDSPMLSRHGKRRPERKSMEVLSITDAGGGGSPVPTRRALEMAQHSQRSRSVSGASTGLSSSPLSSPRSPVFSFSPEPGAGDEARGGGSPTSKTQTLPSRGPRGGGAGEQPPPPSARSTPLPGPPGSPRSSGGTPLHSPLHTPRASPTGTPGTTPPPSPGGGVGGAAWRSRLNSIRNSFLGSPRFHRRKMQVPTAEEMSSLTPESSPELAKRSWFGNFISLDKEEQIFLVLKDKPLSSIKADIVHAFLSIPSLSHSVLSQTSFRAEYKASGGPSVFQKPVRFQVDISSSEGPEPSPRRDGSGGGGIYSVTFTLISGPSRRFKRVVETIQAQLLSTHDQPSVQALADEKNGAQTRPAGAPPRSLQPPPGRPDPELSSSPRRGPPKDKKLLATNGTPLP

Compound | inhibition [1] | inhibition [2] | inhibition [3] | inhibition [4] | inhibition [6] | inhibition [7] | inhibition [8] | inhibition [9] | inhibition [10] | inhibition [11] | inhibition [12] | inhibition [13] | inhibition [14] | inhibition [15] | inhibition [16] | inhibition [17] | inhibition [18] | inhibition [19] | inhibition [20] | inhibition [21] | also measured
O=c1n(Cc2cncn2-c2cccc(Cl)c2)nc(-c2ccc(Cl)cc2)n1C[C@H](O)C(F)(F)F | 4.95% | 9% | 6.76% | 2.94% | -6.67% | -0.16% | 11.3% | 6.15% | -7.7% | -3% | -4.87% | 11% | 7% | 8.26% | -8% | 4% | -1.29% | 33.3% | -1.97% | 7.62% | inhibition ([5]; Compound concentration 10.0 uM): 12%; inhibition [22]: 5.56%; inhibition [23]: -2.19%
C[C@H](O)c1nc(Cn2nc(-c3ccc(Cl)cc3)n(C[C@H](O)C(F)(F)F)c2=O)nn1-c1cccc(Cl)c1 [PECAVAPTAN] | -5.39% | 12% | 0.27% | 7.71% | -4.1% | -0.61% | 11.1% | 1.42% | -9.46% | 4% | -9.42% | 71.2% | 16% | 8.85% | 26% | 8% | 3.56% | 46.8% | -0.23% | 7.48% | inhibition ([5]; Compound concentration 0.0001 uM): 3%; inhibition ([5]; Compound concentration 0.001 uM): 6%; inhibition ([5]; Compound concentration 0.01 uM): 41%; inhibition ([5]; Compound concentration 0.1 uM): 84%; inhibition ([5]; Compound concentration 1.0 uM): 95%; inhibition [22]: -1.46%; inhibition [23]: -2.64%

From ChEMBL document CHEMBL5463729, “Data for DCP probe BAY 1753011” (2023)
